Patent US20250145637A1, “SULFONAMIDE DERIVATIVE, PREPARATION METHOD THEREFOR AND MEDICAL USE THEREOF” (Jiangsu Hengrui Pharmaceuticals Co. Ltd., priority 2021, published 2025)

Key:
[1] = system: H3K23 acetylation in U-2 OS cells; assay: U2OS cell H3K23 acetylation IF assay (immunofluorescence); type: cell-based; conditions: Homo sapiens; for IC50: 24 h incubation, read-out: H3K23 ac/IC50; for Emax: inhibition of H3K23 acetylation, 24 h, read-out: Maximum inhibition rate/Imax %
Procedure: Test Example 3: U2OS Cell H3K23 Acetylation IF Assay (Immunofluorescence)
I. Reagents and Instruments
• 1. U-2 OS (ATCC HTB-96) • 2. Recombinant anti-histone H3 (acetyl K23) antibody (Abcam, ab177275) • 3. Goat anti-rabbit IgG (H+L), Superclonal™ recombinant secondary antibody, Alexa Fluor 488 (Thermofisher, A27034) • 4. Hoechst 33342 (Sigma-Aldrich, B2261-25MG) • 5. Assay plate, 96-well, black with clear bottom (Corning, 3603) • 6. Bovine serum albumin (BSA) (Sangon Biotech, A500023-0100) • 7. Methanol (GENERAL-REAGENT, G75851D) • 8. Tween-20 (Sangon, A100777-0500) • 9. Triton X-100 (Solarbio, T8200) • 10. PBS (Shanghai BasalMedia Technologies Co., Ltd., B320KJ) • 11. 20×PBS buffer (Sangon Biotech, B548117-0500) • 12. McCoy's 5A medium (Gibco, 16600082) • 13. 0.25% trypsin-EDTA (1×) (Gibco, 25200-072) • 14. Pen strep (Gibco, 15140-122) • 15. DPBS (1×) (Gibco, 14190-144) • 16. FBS (Gibco, 10091148) • 17. Automatic cell counter (Countstar, IC1000) • 18. Thermostatic incubator (Thermo, 1160) • 19. ImageXpress® Micro Confocal (Molecular Device)
a. Blocking buffer: PBS (Shanghai BasalMedia)+BSA (final concentration of 1%)+Triton X-100 (final concentration of 0.5%).
b. Wash buffer: PBS (20×PBS was diluted to 1×PBS)+Tween-20 (final concentration of 0.1%).
c. Primary antibody solution: Recombinant anti-histone H3 (acetyl K23) antibody was diluted in blocking buffer at a ratio of 1:1000.
d. Secondary antibody solutions: Goat anti-rabbit IgG (H+L), Superclonal™ recombinant secondary antibody, Alexa Fluor 488 was diluted in blocking buffer at a ratio of 1:1000, and Hoechst 33342 was diluted in blocking buffer at a ratio of 1:5000.
e. Compounds: initial concentration of 100 μM, 3-fold dilution, 9 gradient concentrations. All compound concentrations were diluted 500-fold with McCoy's 5A medium for later use.
(§1) 2. Experimental Procedure
2.1. Cell Treatment (Day One)
a. The state of U-2 OS cells was observed under a microscope to make sure that the cell confluence was about 90%.
b. The cell supernatant was discarded. The cells were rinsed with DPBS once, and the DPBS was removed. The cells were digested with a proper amount of trypsin and left to stand at room temperature or 37° C. for 5 min.
c. The digestion was stopped with an equal volume of medium containing 10% FBS, and the cell suspension was collected and centrifuged at 300 g for 3 min. The cells were suspended in a proper amount of fresh medium.
d. The resulting cell suspension was collected and cell counting was performed.
e. The cell suspension was diluted and plated at 9000 cells/50 μL/well.
f. The wells on the periphery were blocked with 100 μL of PBS.
g. The cell culture plates were incubated overnight in a 37° C., 5% carbon dioxide incubator.
2.2. Compound Addition (Day Two)
a. 50 μL of diluted compound was added to the cell supernatant (50 μL/well) in each cell plate.
b. After the addition, the cell plates were incubated in a 37° C., 5% carbon dioxide incubator for 24 h.
2.3. Immunofluorescence Staining and Measurement (Day Three to Day Four)
a. After the 24-hour incubation, the cell plates were removed from the incubator. The medium was discarded, and plates were fixed with pre-cooled methanol at room temperature for 10 min.
b. The fixation buffer was discarded, and the plates were quickly washed with wash buffer 3 times and then slowly washed 3 times (5 min/wash).
c. The wash buffer was discarded, and blocking buffer was added. The plates were incubated at room temperature for 60 min.
d. The blocking buffer was discarded, and the prepared primary antibody solution was added. The plates were incubated overnight at 4° C.
e. The primary antibody solution was discarded, and the prepared secondary antibody solution was added. The plates were incubated at room temperature for 60 min.
f. The secondary antibody solution was discarded, and the plates were quickly washed with wash buffer 3 times and then slowly washed 5 times (5 min/wash).
g. The plates were tested on ImageXpress® Micro Confocal.
h. […]

human KAT6A = human KAT6A (Homo sapiens (Human), UniProt Q92794); assay: KAT6 enzyme activity assay (AlphaScreen method), KAT6A; type: biochemical; conditions: inhibition of the enzyme human KAT6A
human KAT6A, sequence (Q92794 whole entry): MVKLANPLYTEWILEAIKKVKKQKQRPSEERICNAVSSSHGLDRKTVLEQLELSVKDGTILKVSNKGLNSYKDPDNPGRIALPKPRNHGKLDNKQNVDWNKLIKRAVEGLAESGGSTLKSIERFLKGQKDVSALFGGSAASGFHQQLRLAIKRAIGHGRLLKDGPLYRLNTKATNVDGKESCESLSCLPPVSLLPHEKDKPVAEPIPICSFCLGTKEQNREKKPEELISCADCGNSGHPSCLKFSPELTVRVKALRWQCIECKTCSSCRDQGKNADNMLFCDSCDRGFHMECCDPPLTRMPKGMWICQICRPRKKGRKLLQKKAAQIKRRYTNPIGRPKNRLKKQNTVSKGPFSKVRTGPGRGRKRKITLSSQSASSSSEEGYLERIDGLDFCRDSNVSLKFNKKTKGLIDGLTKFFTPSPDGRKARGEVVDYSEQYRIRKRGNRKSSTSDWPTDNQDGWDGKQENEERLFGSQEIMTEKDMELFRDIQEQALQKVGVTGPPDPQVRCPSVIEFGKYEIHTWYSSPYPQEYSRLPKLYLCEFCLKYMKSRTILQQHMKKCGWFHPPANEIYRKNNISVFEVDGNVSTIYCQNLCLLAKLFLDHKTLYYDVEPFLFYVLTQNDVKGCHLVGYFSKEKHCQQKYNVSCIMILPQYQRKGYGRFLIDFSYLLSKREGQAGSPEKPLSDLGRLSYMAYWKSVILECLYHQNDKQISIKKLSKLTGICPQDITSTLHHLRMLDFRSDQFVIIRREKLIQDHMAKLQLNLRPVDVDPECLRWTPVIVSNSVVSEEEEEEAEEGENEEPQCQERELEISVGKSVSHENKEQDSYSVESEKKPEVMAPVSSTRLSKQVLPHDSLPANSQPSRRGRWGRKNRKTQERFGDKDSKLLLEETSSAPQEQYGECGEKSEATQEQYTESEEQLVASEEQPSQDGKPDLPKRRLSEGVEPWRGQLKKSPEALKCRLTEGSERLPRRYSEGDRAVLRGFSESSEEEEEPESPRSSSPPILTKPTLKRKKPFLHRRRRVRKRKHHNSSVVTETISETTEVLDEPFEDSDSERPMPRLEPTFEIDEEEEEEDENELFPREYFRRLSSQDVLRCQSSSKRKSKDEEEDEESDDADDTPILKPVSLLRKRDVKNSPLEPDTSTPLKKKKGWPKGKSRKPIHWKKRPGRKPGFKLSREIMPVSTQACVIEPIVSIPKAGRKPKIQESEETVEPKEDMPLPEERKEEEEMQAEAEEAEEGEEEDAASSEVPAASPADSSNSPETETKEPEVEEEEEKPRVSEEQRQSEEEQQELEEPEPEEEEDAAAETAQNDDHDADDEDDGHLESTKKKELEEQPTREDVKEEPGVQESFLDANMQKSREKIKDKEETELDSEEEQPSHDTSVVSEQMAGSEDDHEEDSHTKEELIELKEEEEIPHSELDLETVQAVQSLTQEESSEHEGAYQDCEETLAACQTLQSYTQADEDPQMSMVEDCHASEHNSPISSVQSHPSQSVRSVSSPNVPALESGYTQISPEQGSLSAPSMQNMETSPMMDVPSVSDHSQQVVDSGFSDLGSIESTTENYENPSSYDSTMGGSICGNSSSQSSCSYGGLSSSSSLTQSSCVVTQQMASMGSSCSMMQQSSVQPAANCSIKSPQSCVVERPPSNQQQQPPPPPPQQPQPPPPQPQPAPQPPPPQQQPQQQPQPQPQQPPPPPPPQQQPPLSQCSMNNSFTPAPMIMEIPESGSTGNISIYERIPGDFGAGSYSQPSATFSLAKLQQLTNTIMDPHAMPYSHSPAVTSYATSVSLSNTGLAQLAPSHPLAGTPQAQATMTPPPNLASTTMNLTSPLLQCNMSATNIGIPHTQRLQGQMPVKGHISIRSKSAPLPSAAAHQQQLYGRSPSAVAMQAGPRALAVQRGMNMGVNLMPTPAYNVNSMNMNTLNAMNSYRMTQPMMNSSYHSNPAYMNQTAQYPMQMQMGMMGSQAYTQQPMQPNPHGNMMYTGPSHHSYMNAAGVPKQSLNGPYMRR
Source text: Test Example 1: KAT6 Enzyme Activity Assay (AlphaScreen Method)
I. Reagents and instrument • 1. KAT6A (customized by Chempartner) • 2. Ovalbumin (Sigma-Aldrich, A5378-5G) • 3. 2 M Tris-HCl solution, pH 7.8, sterile (Sangon, B548140-0500) • 4. 5 M NaCl solution (Sangon, B548121-0100) • 5. EDTA (0.5 M), pH 8.0, RNase-free (Thermofisher, AM9260G) • 6. Tween-20 (Sangon, A100777-0500) • 7. DTT, 1 M (Invitrogen, P2325) • 8. Acetyl coenzyme A (Ac-CoA, CAYMAN, Cat. No. 16160) • 9. Recombinant histone H3.1 biotinylated (human) (Active Motif 31696) • 10. 384-well plate, light gray (Perkin Elmer, Cat. No. 6005350) • 11. Anacardic acid (MCE, Cat. No. HY—N2020) • 12. AlphaScreen streptavidin donor beads, 5 mg (PerkinElmer, 6760002) • 13. AlphaScreen protein A acceptor beads, 5 mg (PerkinElmer, 6760137M) • 14. Acetylated-lysine antibody #9441 (CST 9441S) • 15. PHERA star microplate reader (BMG labtech) • II. Experimental method
a. 1× assay buffer: 100 mM Tris-HCl, pH 7.8; 15 mM NaCl; 1 mM EDTA; 0.01% tween-20; 1 mM DTT; 0.01% m/v ovalbumin.
b. KAT enzyme solution: 1.25 nM (final concentration), prepared in 1× assay buffer.
c. Mixed substrate of Ac-CoA and H3: a mixed substrate of 1000 nM (final concentration) Ac-CoA and 55 nM (final concentration) H3, prepared in 1× assay buffer.
d. Compounds: initial concentration of 100 μM, 3-fold dilution, 10 gradient concentrations. All compound concentrations were diluted 83-fold with 1× assay buffer for later use.
e. Assay reagent: 8 ng/μL (final concentration) AlphaScreen protein A acceptor beads, 8 ng/μL AlphaScreen streptavidin donor beads, 1:1500 diluted acetylated-lysine antibody, and 100 μM anacardic acid; prepared in 1× assay buffer.
as §1
a. The prepared enzyme solution was added to a 384-well plate at 3 μL/well, and 3 μL of 1× assay buffer was added to each well in columns 23 and 24 (Min).
b. 3 μL of compound solution was added to each well, and 3 μL of buffer was added to each Min well; 3 μL of DMSO solution was added to each well in columns 1 and 2 (Max) as controls. The plate was centrifuged, shaken for 2 min, and incubated at room temperature for 15 min.
c. The mixed substrate of Ac-CoA and H3 was added at 6 μL/well, and the plate was centrifuged, shaken for 2 min, and incubated at room temperature for 20 min.
d. The assay reagent was added at 6 μL/well, and the plate was centrifuged, shaken for 2 min, and incubated in the dark at room temperature for 120 min.
e. Plate reading was performed on the microplate reader, and AlphaScreen counts were recorded.
f. Plotting was performed using the Graphpad software, and the IC50 values of the compounds were calculated.

Compound	IC50 [1]	Emax [1]	IC50 (human KAT6A)
COc1ccccc1S(=O)(=O)Nc1noc2cc(Cn3cccn3)c3c(c12)OCCO3 [Compound 4, N-(5-((1H-pyrazol-1-yl)methyl)-2,3-dihydro-[1,4]dioxino[2′,3′:5,6]benzo[1,2-d]isoxazol-9-yl)-2-methoxybenzenesulfonamide]	1.5 nM	106%	4.2 nM
COc1cc(N(C)C)ccc1S(=O)(=O)Nc1noc2cc(Cn3cccn3)c3c(c12)OCCC3 [Compound 11, N-(5-((1H-pyrazol-1-yl)methyl)-3,4-dihydro-2H-chromeno[8,7-d]isoxazol-9-yl)-4-(dimethylamino)-2-methoxybenzenesulfonamide]	2.1 nM	103%	1.6 nM
O=S(=O)(Nc1noc2cc(Cn3cccn3)c3c(c12)OCCC3)c1cccc2c1OCC2 [Compound 12, N-(5-((1H-pyrazol-1-yl)methyl)-3,4-dihydro-2H-chromeno[8,7-d]isoxazol-9-yl)-2,3-dihydrobenzofuran-7-sulfonamide]	–	–	12.5 nM
CCc1ccc(S(=O)(=O)Nc2noc3cc(Cn4cccn4)c4c(c23)OCCC4)c(OC)c1 [Compound 13, N-(5-((1H-pyrazol-1-yl)methyl)-3,4-dihydro-2H-chromeno[8,7-d]isoxazol-9-yl)-4-ethyl-2-methoxybenzenesulfonamide]	–	–	0.3 nM
COc1cc2c(cc1S(=O)(=O)Nc1noc3cc(Cn4cccn4)c4c(c13)OCC4)CCC2 [Compound 15, N-(4-((1H-pyrazol-1-yl)methyl)-2,3-dihydrobenzofuro[7,6-d]isoxazol-8-yl)-6-methoxy-2,3-dihydro-1H-indene-5-sulfonamide]	–	–	1.2 nM
CCOc1cc(C)ccc1S(=O)(=O)Nc1noc2cc(Cn3cccn3)c3c(c12)OCC3 [Compound 16, N-(4-((1H-pyrazol-1-yl)methyl)-2,3-dihydrobenzofuro[7,6-d]isoxazol-8-yl)-2-ethoxy-4-methylbenzenesulfonamide]	–	–	1.9 nM
COc1cccc(C)c1S(=O)(=O)Nc1noc2cc(Cn3cccn3)c3c(c12)OCC3 [Compound 17, N-(4-((1H-pyrazol-1-yl)methyl)-2,3-dihydrobenzofuro[7,6-d]isoxazol-8-yl)-2-methoxy-6-methylbenzenesulfonamide]	–	–	10.5 nM
COc1ccc(C)cc1S(=O)(=O)Nc1noc2cc(Cn3cccn3)c3c(c12)OCC3 [Compound 18, N-(4-((1H-pyrazol-1-yl)methyl)-2,3-dihydrobenzofuro[7,6-d]isoxazol-8-yl)-2-methoxy-5-methylbenzenesulfonamide]	–	–	12.5 nM
COc1cc2c(cc1S(=O)(=O)Nc1noc3cc(Cn4cccn4)c4c(c13)OCC4)OCC2 [Compound 19, N-(4-((1H-pyrazol-1-yl)methyl)-2,3-dihydrobenzofuro[7,6-d]isoxazol-8-yl)-5-methoxy-2,3-dihydrobenzofuran-6-sulfonamide]	–	–	2.7 nM
COc1cc(C)ccc1S(=O)(=O)Nc1noc2cc(Cn3cccn3)c3c(c12)OCC3 [Compound 22, N-(4-((1H-pyrazol-1-yl)methyl)-2,3-dihydrobenzofuro[7,6-d]isoxazol-8-yl)-2-methoxy-4-methylbenzenesulfonamide]	2.9 nM	105%	4.7 nM
COc1cccc(OC)c1S(=O)(=O)Nc1noc2cc(C3CCCO3)c3c(c12)OCC3 (stereo not drawn) [Compound 26, 2,6-dimethoxy-N-(4-(tetrahydrofuran-2-yl)-2,3-dihydrobenzofuro[7,6-d]isoxazol-8-yl)benzenesulfonamide]	–	–	12.2 nM
COc1cccc(OC)c1S(=O)(=O)Nc1noc2cc([C@H]3CCCO3)c3c(c12)OCC3 [Compound 26-1, (R)-2,6-dimethoxy-N-(4-(tetrahydrofuran-2-yl)-2,3-dihydrobenzofuro[7,6-d]isoxazol-8-yl)benzenesulfonamide]	–	–	5.2 nM
